Read-outs that look alike come from different tables or passages of the source. No end group written: not given here.
How the values were obtained:
[1] = tested on: polymorphonuclear leukocyte migration; assay: Chemotaxis of polymorphonuclear leukocytes (trans-well, zymosan-activated human serum); format: cell-based; details: for % Inhibition of Migration (neutrophil chemotaxis): 0.5% zymosan-activated human serum
Description: The materials and methods for ascertaining the chemotactic inhibitory properties of peptides are generally known in the art, and the preferred procedure is described by Capsoni, et al., 1989, J. of Immunol. Meth., 120:125. Generally, chemotaxis is determined by positioning the leukocytes and a chemotactic substance on opposite sides of a membrane in appropriate culture media. The preferred apparatus for doing a chemotaxis assay is produced by Costar Corporation, Cambridge, Mass., and is termed the trans-well cell culture apparatus. […] If a substance is being tested for inhibitory activity this can be achieved by combining it with the leukocytes or the chemotactic substance.
The procedure of Capsoni, et al., above, was followed with the following modifications. Leukocytes may be isolated and labelled with ^111 Indium as described for the adhesion assay, above. The cells are resuspended after labelling in an appropriate cell culture medium at about 5×10^6 cells/ml. Next, a desired amount of the cell suspension is mixed with a predetermined amount of the peptide(s) to be tested for inhibitory activity, and the mixture added to an appropriate filter device. Three μm-pore membranes are situated in the wells of a 24 trans-well tissue culture plate. The cell/inhibitory peptide mixture is incubated for a short time at 37° C. to acclimate the cells to the membrane surface, and to provide sufficient time for them to settle onto the membrane surface. Next, inserts are set in wells containing cell culture media. The media contains zymosan-activated human serum at about 0.5%. Zymosan activation generates complement-derived chemotactic factors which attract the leukocytes through the pores of the membrane. This media was also prewarmed for an appropriate time prior to addition to the cell culture wells. After a 30 minute incubation period at 37° C., the number of leukocytes that have migrated through the membrane filter, in the presence or absence of CD18 peptides, is readily determined by counting the amount of ^111 Indium present in the media. This may be facilitated by adding an appropriate detergent at an appropriate concentration to the media in the wells prior to removing an aliquot for counting. In this way, the inhibitory activities of the peptide being tested could be determined.
Many of the materials and methods used to test the inhibitory activity of the CD18 peptides on the chemotactic response of the polymorphonuclear leukocytes are similar or identical to those used to perform the adhesion assays described in Example 1. Polymorphonuclear leukocytes were isolated and labelled with ^111 Indium as described before, and the cells were suspended in RPMI 1640 culture medium at a concentration of 5×10^6 /ml. Next, 75 μl of the cell suspension and 25 μl of media containing a desired concentration of a CD18 peptide were added to trans-well inserts, and the mixture was incubated at 37° C. for 10 minutes.
To the bottom wells of the 24-well plate 0.6 ml of media containing 0.5% zymosan-activated human serum was added. This solution was also warmed to 37° C. for 10 minutes prior to use.
Next, the assay was conducted by incubating the trans-well inserts containing the cell suspension with the desired CD18 peptide in the 24-well plates at 37° C. for 30 minutes. Subsequently, the inserts were removed, and 60 μl of a 10% sodium dodecyl sulphate solution was added to the wells of the 24-well plate. The plates were incubated with gentle shaking at room temperature for 15 minutes, and 110 μl aliquots were removed and the amount of ^111 Indium determined using a gamma-counter.

[2] = tested on: polymorphonuclear leukocyte adhesion to endothelial cells activated with IL1; format: cell-based, human

IGWRNVTRLLVFATDDGFHFAGDGKLGAI [Peptide 4-29, NH2 --Ile--Gly--Trp--Arg--Asn--Val--Thr--Arg--Leu--Leu--Val--Phe--Ala--Thr--Asp--Asp--Gly--Phe--His--Phe--Ala--Gly--Asp--Gly--Lys--Leu--Gly--Ala--Ile--COOH]
concentration of peak activity in chemotaxis inhibition ([1]; 6 donors, 10^-4 -10^-7): 10^-5 M | inhibition of chemotaxis migration (in words) ([1]; 10^-4 -10^-5 M): marked inhibition | % Inhibition of Migration (neutrophil chemotaxis) ([1]; 10^-4 M, donor 140): 83% | percent inhibition (-) or enhancement of polymorphonuclear leukocyte migration ([1]; 10^-4 M, donor 195): -93% | % Inhibition of Migration (neutrophil chemotaxis) ([1]; 10^-4 M, donor 195): 76% | % Inhibition of Migration (neutrophil chemotaxis) ([1]; 10^-4 M, donor 279): 74% | % Inhibition of Migration (neutrophil chemotaxis) ([1]; 10^-4 M, donor 363): 76% | percent inhibition (-) or enhancement of polymorphonuclear leukocyte migration ([1]; 10^-4 M, donor 499): -87% | percent inhibition (-) or enhancement of polymorphonuclear leukocyte migration ([1]; 10^-4 M, donor 591): -74% | percent inhibition (-) or enhancement of polymorphonuclear leukocyte migration ([1]; 10^-4 M, donor 593): -88% | % Inhibition of Migration (neutrophil chemotaxis) ([1]; 10^-5 M, donor 140): 69% | % Inhibition of Migration (neutrophil chemotaxis) ([1]; 10^-5 M, donor 169): 75% | percent inhibition (-) or enhancement of polymorphonuclear leukocyte migration ([1]; 10^-5 M, donor 195): -93% | % Inhibition of Migration (neutrophil chemotaxis) ([1]; 10^-5 M, donor 195): 87% | % Inhibition of Migration (neutrophil chemotaxis) ([1]; 10^-5 M, donor 279): 49% | % Inhibition of Migration (neutrophil chemotaxis) ([1]; 10^-5 M, donor 359): 74% | % Inhibition of Migration (neutrophil chemotaxis) ([1]; 10^-5 M, donor 363): 79% | percent inhibition (-) or enhancement of polymorphonuclear leukocyte migration ([1]; 10^-5 M, donor 499): -79% | percent inhibition (-) or enhancement of polymorphonuclear leukocyte migration ([1]; 10^-5 M, donor 591): -88% | percent inhibition (-) or enhancement of polymorphonuclear leukocyte migration ([1]; 10^-5 M, donor 593): -88% | % Inhibition of Migration (neutrophil chemotaxis) ([1]; 10^-6 M, donor 140): 2% | percent inhibition (-) or enhancement of polymorphonuclear leukocyte migration ([1]; 10^-6 M, donor 195): 11% | % Inhibition of Migration (neutrophil chemotaxis) ([1]; 10^-6 M, donor 195): 34% | % Inhibition of Migration (neutrophil chemotaxis) ([1]; 10^-6 M, donor 279): 17% | % Inhibition of Migration (neutrophil chemotaxis) ([1]; 10^-6 M, donor 363): 34% | percent inhibition (-) or enhancement of polymorphonuclear leukocyte migration ([1]; 10^-6 M, donor 499): 0% | percent inhibition (-) or enhancement of polymorphonuclear leukocyte migration ([1]; 10^-6 M, donor 591): 0% | percent inhibition (-) or enhancement of polymorphonuclear leukocyte migration ([1]; 10^-6 M, donor 593): 4% | % Inhibition of Migration (neutrophil chemotaxis) ([1]; 10^-7 M, donor 140): 0% | % Inhibition of Migration (neutrophil chemotaxis) ([1]; 10^-7 M, donor 279): 0% | inhibitory activity on chemotaxis (in words) ([1]; PMNs from 6 donors): significant activity being observed for all donors | Percent Change in PMN Adhesion to ECs activated with IL1 ([2]; 10^-7 M, donor 155*, peptide 1 wk 4°): +59% | Percent Change in PMN Adhesion to ECs activated with IL1 ([2]; 10^-7 M, donor 272*, peptide 1 wk 4°): +2% | Percent Change in PMN Adhesion to ECs activated with IL1 ([2]; 10^-8 M, donor 108*, peptide frozen): +21% | Percent Change in PMN Adhesion to ECs activated with IL1 ([2]; 10^-8 M, donor 489*, peptide frozen): -3%
